Test [1] concerns DPP4 epitope peptide.
Experimental: For this test, the following two groups were prepared: a physiological saline group and an OSK-1-DPP4 conjugate group (100 μg/mouse) (6 animals per group). Test samples were intracutaneously administered to Balb/c mice 3 times at 2-week intervals. Before the first administration and every 2 weeks until 8 weeks after the first administration, blood samples were collected, and the antibody titer against the DPP4 epitope peptide was measured by ELISA.
For this test, the following three groups were prepared: a KLH-DPP4 conjugate group (20 μg/mouse), an OSK-1-DPP4 conjugate group (100 μg/mouse) and an OSK-1-DPP4 conjugate (100 μg/mouse) plus Alum (Alhydrogel 2% (InvivoGen) 1 mg/mouse) group (2 animals per group). […] Before the first administration, every 2 weeks until 6 weeks after the first administration, and 12 weeks after the first administration, blood samples were collected, and the antibody titer against the DPP4 epitope peptide was measured by ELISA.
Six types of OSK-1-DPP4 conjugates containing different mouse DPP4 epitope peptides (SEQ ID NOs: 3, 5, 6, 8, 18 and 19) were intracutaneously administered to Balb/c mice at a dose of 100 μg per animal 3 times at 2-week intervals. Before the first administration and every 2 weeks after the first administration, blood samples were collected, and the antibody titer against each epitope peptide was measured by ELISA. […]
Test [2] concerns DPP4 epitope peptide. The note with it: 4 administrations; blood at 11 weeks; FIG. 3.
Experimental: For this test, the following three groups were prepared: an OSK-1-DPP4 conjugate group (100 μg/mouse), a KLH-DPP4 conjugate (20 μg/mouse) plus Alum (Alhydrogel 2% (InvivoGen) 1 mg/mouse) group and a KLH-DPP4 conjugate (20 μg/mouse) plus OSK-1 (100 μg/mouse) group. Test samples were intracutaneously administered to Balb/c mice 3 times at 2-week intervals and at 9 weeks after the start of the administration, 4 times in total. At 11 weeks after the start of the administration, blood samples were collected, and the titer of each IgG subclass of antibodies against the DPP4 epitope peptide was measured by ELISA.
For test [3], the system named is DPP4. The note with it: OSK-1-DPP4-17 100 μg/mouse; KLH-DPP4-17 20 μg/mouse mixed with Alum 1 mg/mouse; 4 administrations; 21 weeks; FIG. 8.
Experimental: To a KLH-DPP4-17 group of mice, KLH-DPP4-17 and Alum (Alhydrogel 2% (InvivoGen)) were intracutaneously administered as a mixture at doses of 20 μg/mouse and 1 mg/mouse, respectively. To an OSK-1-DPP4-17 group of mice, OSK-1-DPP4-17 was intracutaneously administered at a dose of 100 μg/mouse. In either group, the conjugate was intracutaneously administered to Balb/c mice 3 times at 2-week intervals, and the 4th administration was performed at 11 weeks after the first administration. At 21 weeks after the first administration, blood samples were collected, and the amount of serum IgE antibody against DPP4 was measured by ELISA.
Test [4] concerns B16F10 melanoma cells. Particulars: vaccination once a week 4 times before implantation of B16F10 (1×10^5 cells/mouse). On the procedure:
In addition, the adjuvant effect of the OSK-1 peptide on the antitumor effect of a WT1 peptide vaccine was also examined. For this test, the following four groups were prepared: a physiological saline group, a WT1 peptide (100 μg/mouse) plus poly(I:C) (InvivoGen; Poly(I:C) HMW VacciGrade, 50 μg/mouse) group, a WT1 peptide (100 μg/mouse) plus OSK-1 peptide (100 μg/mouse) group and an OSK-1-WT1 conjugate (350 μg/mouse) group (6 animals per group). The vaccines were administered to C57BL/6J mice once a week, 4 times in total. One week after the 4th administration, B16F10 melanoma cells (1×10^5 cells/mouse) were implanted into the dorsal skin. The vaccines were administered again one week after the cell implantation. The body weight and the diameter of the tumor were measured twice a week after the cell implantation. The diameter of the tumor was measured using a digital caliper, and the tumor volume was calculated by the formula: (major axis)×(minor axis)^2.

For test [5], the system named is B16F10 melanoma cells. The note with it: 350 μg/mouse, vaccination started on day of implantation of B16F10 (3×10^5 cells/mouse). Here is the method:
The antitumor effect of the same OSK-1-WT1 conjugate as used in Reference Example 1 was assessed. For this test, the following four groups were prepared: a physiological saline group, a WT1 peptide (100 μg/mouse) plus poly(I:C) (InvivoGen; Poly (I:C) HMW VacciGrade, 50 μg/mouse) group, an OSK-1-WT1 conjugate (350 μg/mouse) group and a cisplatin (5 mg/kg) group (10 animals per group). B16F10 melanoma cells (3×10^5 cells/mouse) were implanted to C57BL/6J mice, and at the same day, the vaccines were intracutaneously administered into the dorsal skin. The day of cell implantation was designated as Day 0. The vaccines were administered on Day 7, Day 14, Day 21, Day 28 and Day 35. Twice a week after the cell implantation, the diameter of the tumor was measured using a digital caliper, and the tumor volume was calculated by the formula: (major axis)×(minor axis)^2.

Like-named read-outs stand apart in the source and are kept apart here.

“Ac-ELKLIFLHRLKRLRKRLKRK-X-ENSTFESFG (X=ε-Acp) [OSK1-DPP4-17]”: the “antibody production against the DPP4 epitope peptide (antibody titer, ELISA)” value in test [1] (100 μg/mouse intracutaneously 3 times at 2-week intervals, blood until 8 weeks, FIG. 1) is given as “antibody production against the DPP4 epitope peptide was observed”. In addition, in test [1] (OSK-1-DPP4 100 μg/mouse, KLH-DPP4 20 μg/mouse, Alum 1 mg/mouse, 3 times at 2-week intervals, up to 12 weeks, FIG. 2), the “antibody production-inducing capability (antibody titer against the DPP4 epitope peptide)” value is recorded as “comparable to that of the KLH-DPP4 conjugate”. For the same substance, the “titer of each IgG subclass of antibodies against the DPP4 epitope peptide” value in test [2] was “IgG2a and IgG2b, which are Th1-type IgG subclasses, were also produced at high levels in addition to IgG1”. Moreover, the “IgE production against the target protein (serum IgE antibody against DPP4)” value in test [3] is on record as “no IgE production against the target protein was observed”.

“Ac-ELKLIFLHRLKRLRKRLKRK-X-RMFPNAPYL (X=ε-Acp) [OSK-1-WT1 conjugate]”: the “inhibitory effect on tumor growth (tumor volume)” value in test [4] (FIG. 4) is “the inhibitory effect on tumor growth and the survival benefit were observed”; in test [5] (FIG. 6), “modest, but the tumor volume was kept at lower levels than that of the physiological saline administration group (negative control) until Day 32”. Further, the “survival benefit (survival rate)” value was “the inhibitory effect on tumor growth and the survival benefit were observed” in test [4] (FIG. 5); “comparable to those in the WT1 peptide plus poly(I:C) group and the cisplatin group” in test [5] (FIG. 7).
